# What was measured:
# Format in all cases: in vivo
# [1] = test system: streptozocin-treated mice fed a high-fat Western Diet; assay: Final Glucose Measurement on the 14th day (after 28th dose); settings: compared to mice not treated with compound (FIG. 4)
# Protocol: Groups of mice were maintained on diet and dosing schedules as described, and on the 14th day were moved to the procedure room, dosed with a final 28th dose (of compound or vehicle only, according to their group as shown in FIG. 4), then acclimated for about 1 hour with access to food and water before bleeding to measure blood glucose.
# In FIG. 4 the first […] bars (from left to right) represent mice that were treated with STZ and vehicle only; STZ and GW021B 10 mg/kg; STZ and GW021 B 30 mg/kg; STZ and GW021 B 100 mg/kg; STZ and GW845 3 mg/kg. The seventh bar represents mice that were not treated with STZ (citric acid control) and were not treated with any compound (Vehicle only). “Vehicle” mice were dosed with HPMC/Tween only (no GW021, CB-1 or GW 845). Each bar represents an average of a single blood draw taken on day 14 from each of the ten mice in a group.
# [2] = test system: C57BL/6J mice fed a high fat diet (Western Diet) and treated with streptozocin; assay: 14 Day Chronic Study (glucose after 1st, 15th and 27th dose); settings: 0, 7 and 13 days of treatment, twice daily dosing, compared to STZ treated mice without compound
# Protocol: A 14 day chronic study in C57BL/6J mice was performed. The animals were fed a high fat diet (Western Diet) and treated with a low dose of streptozocin (which damages the pancreatic beta-cells) resulting in both insulin resistance and insulin deficiency (as in T2DM patients). Mice were prepared as generally described above in Example 2. Two weeks after injection of streptozocin, a twice daily dosing schedule was started with: • 1. GW67021B (10 mg/kg, 30 mg/kg, or 100 mg/kg); or • 2. CB-1 (Rimonabant, antagonist of the CB-1 receptor; commonly used as a positive control for weight-loss inducing drugs) at 5 mg/kg; or • 3. GW34784 (PPAR gamma agonist compound as another positive control) at 3 mg/kg (also referred to as GW845 or GW7845))
# All compounds were dosed in suspension in 0.5% HPMC; 0.1% Tween 80 by body weight. The same general procedures used in the acute study (Example 2) were utilized in this chronic study. Glucose was measured following the 1st, 15th and 27th dose (day 0, 7, and 13) at 0, 1, 2, 3, 4, and 5 hour time points. Results are graphed in FIGS. 3a-3c for the groups of mice receiving WD+Streptozocin+Vehicle (no compound); WD+Streptozocin+GW021 10 mg/kg; WD+Streptozocin+GW021 30 mg/kg; WD+Streptozocin+GW021 100 mg/kg; WD+Streptozocin+GW845 3 mg/kg; WD+Streptozocin+CB-1 5 mg/kg.
# [3] = test system: male C57BL/6J mice fed a high fat Western Diet, with or without streptozotocin; assay: Acute Glucose Lowering Study (tail-vein blood glucose over 5 hours after a single dose); settings: for average change in blood glucose measurement: 100 mg/kg, N=10
# Description: The studies reported below dosed male C57BL/6J mice with an EP3 antagonist, GW671021B, and monitored the effects on glucose homeostasis by measuring tail-vein blood glucose. The animals were either (a) fed a high fat diet to induce mild insulin resistance, or (b) were fed the high fat diet and also treated with a low dose of streptozotocin (which damages the pancreatic beta-cells) resulting in both insulin resistance and insulin deficiency (as in T2DM patients).
# Materials and Methods: Male 6 week old C57BL/6J mice (Jackson Laboratory, Bar Harbor Me.) were made mildly insulin resistant by feeding a high fat Western Diet (WD) (Research Diets, D12079B) for 3 weeks. Test mice were then made insulin deficient by intraperitoneal injection (IP) with 100 mg/kg Streptozotocin (STZ or streptozocin; Zanosar®, Sicor Pharmaceuticals, Irvine, Calif.) reconstituted in citric acid. Control mice (also on the WD) were injected with the same volume and concentration of citric acid without the STZ. Two weeks after the STZ (or control citric acid) injections the mice received injections of either GW021 in vehicle, or vehicle alone (as described below). Student's t-test or Tukey's HSD (Honestly Significant Different) test was used to determine the significance of the results.
# Acute Glucose Lowering Study: At 6:30 am mice were transferred to clean cages with water in the procedure room and allowed to acclimate for 1 hour. After acclimation, a small snip was made at the tip of the tail for blood collection and baseline glucose measurements were collected using the Bayer Elite XL glucometer. Mice were dosed with either compound GW671021B (100 mg/kg body weight) in a suspension in 0.5% HPMC, 0.1% Tween 80; or dosed with Vehicle only (HPMC, 0.1% Tween 80). Whole blood for glucose measurement was collected at 0.5, 1, 2, 3, 4, and 5 hours after dosing. […] There were 10 mice in each treatment group.
# Data represent an average blood glucose measurement (mg/dL) of the 10 mice in each treatment group at each time point.
compound,measurement,setting,value
COc1ccc(Br)cc1S(=O)(=O)[N-]C(=O)/C=C/c1ccccc1Cc1ccc2ccccc2c1.[Na+] [GW021B],"blood glucose level on the fourteenth day of treatment, in words",[1],lower blood glucose levels
same,"effect on glucose (change compared to baseline), in words",[2],continued to have glucose lowering effects
same,average change in blood glucose measurement,"[3]; WD + STZ mice, 0 hrs (baseline)",0 mg/dL
same,average change in blood glucose measurement,"[3]; WD + STZ mice, 0.5 hrs after dosing",-16 mg/dL
same,average change in blood glucose measurement,"[3]; WD + STZ mice, 1 hr after dosing",-46 mg/dL
same,average change in blood glucose measurement,"[3]; WD + STZ mice, 2 hrs after dosing",-59 mg/dL
same,average change in blood glucose measurement,"[3]; WD + STZ mice, 3 hrs after dosing",-66 mg/dL
same,average change in blood glucose measurement,"[3]; WD + STZ mice, 4 hrs after dosing",-83 mg/dL
same,average change in blood glucose measurement,"[3]; WD + STZ mice, 5 hrs after dosing",-79 mg/dL
same,average change in blood glucose measurement,"[3]; WD + citric acid mice (no STZ), 0 hrs (baseline)",0 mg/dL
same,average change in blood glucose measurement,"[3]; WD + citric acid mice (no STZ), 0.5 hrs after dosing",-14 mg/dL
same,average change in blood glucose measurement,"[3]; WD + citric acid mice (no STZ), 1 hr after dosing",-14 mg/dL
same,average change in blood glucose measurement,"[3]; WD + citric acid mice (no STZ), 2 hrs after dosing",-9 mg/dL
same,average change in blood glucose measurement,"[3]; WD + citric acid mice (no STZ), 3 hrs after dosing",-18 mg/dL
same,average change in blood glucose measurement,"[3]; WD + citric acid mice (no STZ), 4 hrs after dosing",-37 mg/dL
same,average change in blood glucose measurement,"[3]; WD + citric acid mice (no STZ), 5 hrs after dosing",-37 mg/dL
same,"effect on blood glucose (change compared to baseline), in words","[3]; streptozocin-treated C57BL/6J mice fed high-fat Western Diet, 5 hour time course",blood glucose lowering effect

# Reference: patent publication US20080200568A1, “Genes Associated With Type ll Diabetes Mellitus” (priority 2005, published 2008)
